In patent US11453674B2, “Heterocyclic compound, preparation method and use thereof in medicine” (SUZHOU SINOVENT PHARMACEUTICALS CO., LTD., priority 2019, dated 2022):

Biological target: T1, CYP2C9 (Homo sapiens, UniProt P11712)
T1 construct: from tissue
Assay: Inhibitory effect on CYP2C9 enzyme in microsomes (diclofenac probe)
Format: in vitro ADME
Conditions: microsomes 0.25 mg/mL, diclofenac 10 μM; IC50 higher than that of benzbromarone
Experimental: Example 27: Evaluating the Inhibitory Effects of Compounds on CYP2C9 Enzyme
The assay was performed in 100 mM phosphate buffer in a total volume of 200 μL. The microsome concentration in the reaction system was 0.25 mg/mL, the concentrations of the test compounds were 10, 3.33, 1.11, 0.37, 0.12, 0.04 and 0 μM, the CYP2C9-specific probe substrate and the concentration were diclofenac (10 μM). The mixture was pre-incubated in a 37° C. thermostatic oscillator for 5 min, and a NADPH-generating system (containing 1.3 mM NADP^+, 3.3 mM D(+)-glucopyranose-6-phosphate, […] glucose-6-phosphate dehydrogenase, 3.3 mM MgCl2) was added to start the reaction. After incubation for 10 min, the reaction was terminated by adding an equal volume of acetonitrile. The mixture was vortexed and centrifuged at 13,000 rpm. The resulting supernatant was loaded to LC-MS-MS to determine the content of metabolites. The metabolite of diclofenac specifically obtained by CYP2C9 metabolism pathway is 4-hydroxydiclofenac. Sulfaphenazole was adopted as a specific CYP2C9 inhibitor. In the experiment, analysis was performed by GraphPad Primsm 5.0 to calculate the half maximal inhibitory concentration (IC50 value).

T1 sequence (P11712 whole entry): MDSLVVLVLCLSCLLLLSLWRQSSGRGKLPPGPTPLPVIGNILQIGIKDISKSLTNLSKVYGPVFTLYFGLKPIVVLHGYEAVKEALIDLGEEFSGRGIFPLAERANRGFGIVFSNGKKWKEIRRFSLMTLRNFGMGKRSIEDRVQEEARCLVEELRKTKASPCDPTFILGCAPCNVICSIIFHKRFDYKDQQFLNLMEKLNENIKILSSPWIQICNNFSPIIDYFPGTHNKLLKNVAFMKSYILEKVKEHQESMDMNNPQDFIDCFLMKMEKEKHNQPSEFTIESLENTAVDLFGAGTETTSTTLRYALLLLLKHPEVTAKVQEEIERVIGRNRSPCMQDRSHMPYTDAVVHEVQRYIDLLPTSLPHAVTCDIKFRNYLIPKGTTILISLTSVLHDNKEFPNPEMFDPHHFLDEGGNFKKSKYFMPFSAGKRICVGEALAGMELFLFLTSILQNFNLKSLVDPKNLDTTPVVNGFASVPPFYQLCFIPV

| inhibitory effect on CYP enzymes (CYP2C9) | SMILES |
| --- | --- |
| very low or no inhibitory effect | CCc1nc2ncc(C(F)(F)F)cn2c1C(=O)c1cc(Br)c(O)c(Br)c1 [Example 5, (3,5-dibromo-4-hydroxyphenyl)(2-ethyl-6-(trifluoromethyl)imidazo[1,2-a]pyrimidin-3-yl)methanone] |
| very low or no inhibitory effect | CCc1nc2ncccn2c1C(=O)c1cc(Br)c(O)c(Br)c1 [Example 20, 2,6-dibromo-4-([2-ethylimidazo[1,2-a]pyrimidin-3-yl]carbonyl) phenol] |
| very low or no inhibitory effect | CCc1nc2cc(Cl)ncn2c1C(=O)c1cc(Br)c(O)c(Br)c1 [Example 21, (7-chloro-2-ethylimidazo[1,2-f]pyrimidin-3-yl)(3,5-dibromo-4-hydroxyphenyl)methanone] |

| SMILES | inhibitory effect on CYP enzymes (CYP2C9) |
| --- | --- |
| CCc1nc2ncc(F)cn2c1C(=O)c1cc(Br)c(O)c(Br)c1 [Example 4, (3,5-dibromo-4-hydroxyphenyl)(2-ethyl-6-fluoroimidazo[1,2-a]pyrimidin-3-yl)methanone] | very low or no inhibitory effect |
| CCc1nc2ncc(F)cn2c1C(=O)c1cc(Br)c(O)c(C#N)c1 [Example 14, 3-bromo-5-(2-ethyl-6-fluoroimidazo[1,2-a]pyrimidine-3-carbonyl)-2-hydroxybenzonitrile] | very low or no inhibitory effect |
